According to patent publication US12629415B2, “Vaccine adjuvants” (THE PROVOST, FELLOWS, FOUNDATION SCHOLARS, AND THE OTHER …, priority 2018, dated 2026):
“Also recorded” adds a separate entry of the source.

Key:
[1] = test system: mononuclear cells from cord blood, children's blood or adult blood; test: HEK-Blue IFNα/β and TNFα assays on mononuclear cells of cord blood, children and adults; format: cell-based, human; settings: transfection 24 h, 4-24 months, 2-5 years, 6-11 years
Text: Umbilical cord blood samples were obtained from term births following normal pregnancy, labour and delivery at National Maternity Hospital (NMH), Holles St, Dublin 2. […] Venous blood from infants, children and adolescents of various ages was collected during elective surgical procedures where no indication of infection was present (such as hydrocele repair, umbilical hernia repair, onychocryptosis, orchipexy repair) in Our Lady's Children's Hospital Crumlin (OLCHC), Dublin 12. […] Volumes drawn were age and weight dependent, according to standard, approved guidelines. Ethics approval was obtained from the Ethics Committees of NMH and OLCHC and informed consent was obtained from each subject or their parent/guardian. Adult blood samples were from healthy adults, supplied by the Irish Blood Transfusion Service. • Poly(I:C), Poly(dA:dT) and cGAMP were obtained from Invivogen • Poly (dA:dT) is a repetitive synthetic double-stranded DNA sequence of poly(dA-dT)-poly(dT-dA) http://www.invivopen.com/poly-dadt-naked • Poly (I:C) comprises long strands of inosine poly(I) homopolymer annealed to strands of cytidine poly(C) homopolymer http://www.invivogen.com/polyic-hmw. • cGAMP is cyclic [G(2′,5′)pA(3′,5′)p]; Formula: […], 2Na Methodology
Isolation of mononuclear cells and monocytes—Primary PBMCs or CBMCs were isolated from healthy human blood or cord blood. Monocytes were isolated by negative selection using Monocyte Isolation Kit II (Miltenyi). Monocyte purity was assessed using CD14 staining and was routinely 85-95%. Cells were cultured at 37° C., 5% CO2, 95% air in RPMI-1640, with stable 2.5 mM L-glutamine and 0.5 mM sodium pyruvate with 10% FBS (all from Sigma-Aldrich).
Poly(I:C) (5 μg/ml) (Invivogen), Poly(dA:dT) (5 μg/ml) (Sigma-Aldrich), 2′3′ cGAMP (10 μg/ml), 5′ triphosphate double stranded RNA (5′ ppp dsRNA) (2.5 μg/ml) and HSV-60 (2 μg/ml) (all from Invivogen) were transfected into PBMCs or CBMCs using TransIT-X2 (Mirus).
Measurement of cytokines—HEK Blue TNFα/IFNα/β Assays were performed as per the manufacturer's (Invivogen) instructions using Quanti-Blue Detection Reagent. SEAP levels were determined using a spectrophotometer plate reader at 630 nm. IFNα (3425-1H-6, Mabtech) and IP-10 (DY266, R&D Systems) were detected by sandwich ELISA. IFNα ELISA used pan specific IFNα antibodies, which allows detection of IFNα subtypes 1/13, 2, 4, 5, 6, 7, 8, 10, 14, 16 and 17. BioLegend LEGENDplex™ Human Inflammation Panel (13-plex) was carried out as per manufacturer's (Biolegend) instructions to determine levels of IFNγ, IL-10, IL-12p70 and IL-23. A BD LSR Fortessa cell analyser was used to acquire samples and BioLegend LEGENDplex™ software was used for analysis.

[2] = test system: bovine PBMCs; test: Bovine IFN-γ ELISA on stimulated PBMCs; format: cell-based, cattle; settings: 72 hours; for IFN-γ secretion by ConA stimulated PBMCs from 2 month old calves: ConA 1 μg/ml, polydA:dT 1 μg/ml; for IFN-γ secretion by ConA stimulated bovine PBMCs: calves <1 year old, ConA 1 μg/ml with or without LPS 100 pg/ml; for IFN-γ secretion by PBMCs from neonatal calves, time course: same 5 calves from 1 to 5 months of age, ConA with or without LPS
Experimental: Bovine peripheral blood mononuclear cells were isolated from whole blood samples collected in 9m1 vacutainers containing Heparin anticoagulant. PBMCs were spun and separated using leucosep tubes (Cruinn) and a density gradient histopaque 1077 (Sigma-Aldrich) at a speed of 1200 g for 20 minutes. Red blood cell contamination was eliminated using sterile 0.25% sodium chloride (Baxter) as a lysis buffer. The cells were subsequently washed twice in PBS at a speed of 600 g for 10 minutes to remove impurities.
Cells were counted using a haemocytometer, microscope and trypan blue (Sigma Aldrich) and seeded at appropriate densities in tissue culture plates (Cruinn) containing media. The cells were incubated at 37° C. at 5% CO2 treated within hours of plating to avoid unwanted cell death.
When analysing the effects of IL-1β on T cell activation, cells were pre-treated with 250 μg/ml of IL-1 receptor antagonist (IL-1Ra) 40 minutes before stimulation with IL-1β (25 ng/ml). Cells were subsequently stimulated with concanavalin A (1 μg/ml) 1 hour after addition of IL-1β. Similarly, when analysing the effects of polydA:dT on T cell activation, cells were stimulated with polydA:dT (1 μg/ml) 1 hour before ConA treatment (1 μg/ml). LPS (100 pg/ml) primed cells were incubated with YVAD-FMK (10 μm), an inhibitor specific for caspase-1. After 40 minutes, the cells were stimulated with alum (50 μg/ml) for 24 hours and supernatants were then harvested and analysed by ELISA for IL-1β
Capture antibodies (50 μl/well), diluted in the appropriate buffers, were dispensed into the wells of high binding plates (Greiner Bio-One) and incubated overnight at room temperature or 4° C. For analysis of IL-17, the ELISA plates were pre-coated with capture antibody by the manufacturing before delivery. The wells were washed with PBS/Tween 3 times and the plates were then incubated with 150 μl of blocking buffer for 1 hour at room temperature. The plates were washed again before supernatant (neat or diluted) and recombinant standards were added for 1 hour at room temperature. Following this, the plates were washed and 50 μl of detection antibody was added to the wells for a period of 1 or 2 hours at room temperature. After washing, 50 μl diluted streptavidin-HRP was added to the plate for between 30 minutes and 1 hour. After the final wash, 50 μl of 3,3′-, 5,5′-Tetramethylbenzidine (TMB) substrate was added and the plates were incubated in the dark. The reaction was stopped by addition of 1M sulphuric acid and the absorbance readings were measured at 450 nm using a microtitre plate reader. The cytokine concentrations were calculated using a linear regression standard curve from recombinant cytokines of known concentration. Skanit™ software was used to estimate values.

Substance: poly(deoxyadenylic-thymidylic) acid [Poly(dA:dT)]
- TNFα production across age groups [1]: maintenance of cord blood responsiveness to CNA was also observed for both Poly(I:C) and Poly(dA:dT)-induced TNFα production to the age of 24 months
- production of type I IFN across age groups [1]: maintained throughout childhood; also recorded: maintained across all age groups
- IFN-γ secretion by ConA stimulated PBMCs from 2 month old calves ([2]; listed as PolydA:dT): drives enhanced IFN-γ secretion in calves aged <1 year old
- IFN-γ secretion by ConA stimulated PBMCs from 2 month old calves ([2]; listed as poly(dA:dT)): strongly enhanced IFN-γ production
- IFN-γ secretion by ConA stimulated bovine PBMCs [2]: promotes type 1 interferon dependent enhancement of interferon gamma production in PBMCs
- IFN-γ secretion by ConA stimulated bovine PBMCs ([2]; listed as Poly (deoxyadenylic-thymidylic) acid): promotes type 1 interferon dependent enhancement of interferon gamma production in PBMCs
- IFN-γ secretion by ConA stimulated bovine PBMCs ([2]; listed as poly (dA:dT)): strongly enhanced IFN-γ production by PBMCs from adult (8 months old) animals
- IFN-γ secretion by ConA stimulated bovine PBMCs ([2]; listed as polydA:dT): increase in IFN-γ secretion; also recorded: increased capacity to secrete IFN-γ in response to polydA:dT, although the difference was only significant when cells were primed with LPS
- IFN-γ secretion by PBMCs from neonatal calves, time course ([2]; listed as PolydA:dT): drives enhanced IFN-γ by cells from neonatal calves
- IFN-γ secretion by PBMCs from neonatal calves, time course ([2]; listed as polydA:dT): overcomes the deficiency in interferon gamma production in neonatal cattle; also recorded: significantly enhanced in response to polydA:dT; also recorded: most evident in the first 2 months of life after which the enhancement was not statistically significant; also recorded: significant increase in IFN-γ secretion at 1 and 2 months in the presence or absence of LPS; also recorded: ability to drive enhanced IFN-γ from PBMCs of calves aged 1-2 months
